{"source": "patent US4599362A", "about": "“2-aryl-ethyl ether derivatives and insecticidal and acaricidal agents containing said derivatives” (priority 1980, dated 1986)", "key": {"[1]": {"tested_on": "yearling carps", "assay": "Test 8: Fish Toxicity", "type": "in vivo", "settings": "48 hours, concentration at which 1/2 of the test fishes were killed", "experimental": "A water tank having a width of 60 cm, a length of 30 cm and a height of 40 cm was filled with water, and 10 yearling carps having a body length of about 5 cm were set free in the tank and adapted to the environment in the tank. A test compound was applied so that the concentration in water was 10, 1, or 0.1 ppm. After 48 hours, the numbers of killed and living carps were counted and the influences on the fishes were examined."}, "[2]": {"tested_on": "two-spotted spider mite", "assay": "Test 6: Effect on Two-Spotted Spider mite adults", "type": "in vivo", "settings": "500 ppm, adults, 24 hours", "method_in_brief": "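Kidney bean leaf discs (15 mm) on wet cotton, each holding 10 adult mites, sprayed with 3 ml of a 500 ppm dilution of an emulsifiable concentrate. Kept at 25° C; dead adults counted after 24 hours to give mortality, averaged over three discs.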"}, "[3]": {"tested_on": "third-instar larvae of diamond back moth", "assay": "Test 4: Effect on Diamond Back Moth", "type": "in vivo", "settings": "Plutella xylostella, 24 hours", "method_in_brief": "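Emulsifiable concentrate diluted in water to 100 or 20 ppm and sprayed at 3 ml per cup onto cabbage leaves holding 10 third-instar diamondback moth larvae. Dead and living larvae counted after 24 h; mortality averaged over three cups.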"}, "[4]": {"tested_on": "second-instar larvae of tobacco cutworm", "assay": "whole plant or invertebrate", "type": "in vivo", "settings": "foliar", "experimental": "To a mixture of 20 parts of the compound of the present invention and 20 parts of Sorpol SM-200 (registered trademark for the product supplied by Toho Chemical Industrial Co., Ltd.) was added 60 parts of xylol, and the mixture was sufficiently blended. The obtained emulsifiable concentrate was diluted at a predetermined concentration with distilled water, and the obtained dilution was used.\nAn emulsifiable concentrate of a test compound prepared according to the method described in Formulation Example 1 was diluted to a concentration of 100 or 20 ppm. Among the compounds of the present invention, the following compounds were used as the test compounds: (1), (l ), (3), (4), (6), (8), (9), (10), (11), (14), (15), (16), (17), (18), (19), (20), (21), (24), (27), (28), (29), (30), (33), (34), (35), (36), (38), (39), (40), (41), (42), (43), (47), (48), (50), (51), (52), (53), (54), (55), (56), (59), (60), (62), (63), (64), (65), (66), (67) and (68). Sweetpotato leaves were immersed in the dilution for 10 seconds, air-dried and placed in a plastic cup having a diameter of 10 cm. Then second-instar larvae of tobacco cutworm were set free in the cup. The cup was allowed to stand still in a thermostat chamber maintained at 25° C. After 48 hours, the numbers of killed and living larvae were counted and the mortality was calculated. The obtained result was expressed by an average value obtained from the mortality calculated in three test cups. Compounds of (b), (f) and (h) were tested as comparative compounds in the same manner as the compounds of the present invention."}, "[5]": {"tested_on": "resistant green rice leafhopper (collected at Nakagawara)", "assay": "Test 3: Effect on Resistant Green Rice Leafhopper", "type": "in vivo, Nephotettix cincticeps Uhler", "settings": "resistant, female adults, 24 hours", "method_in_brief": "(§1)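 Rice seedlings (2–3 leaves) sprayed with emulsifiable-concentrate dilutions at 100 or 20 ppm, 3 ml per pot, air-dried, then infested with 10 female adults per pot. Mortality counted after 24 h and averaged over three pots.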"}, "[6]": {"tested_on": "sensitive green rice leafhopper (collected at Chigasaki)", "assay": "Test 3: Effect on Sensitive Green Rice Leafhopper", "type": "in vivo", "settings": "female adults, 24 hours", "method_in_brief": "as §1"}, "[7]": {"tested_on": "male mice", "assay": "Test 9: Toxicity Test (acute oral, mice)", "settings": "male mice; oral, corn oil; 7 days", "method_in_brief": "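Compound dissolved or suspended in corn oil was given orally to male mice of 19–23 g body weight, at 0.2 ml per 10 g. Deaths and effects were recorded after 7 days.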"}, "[8]": {"settings": "20 ppm, second-instar larvae, 48 hours, read-out: Mortality (%)"}}, "note": "Like-named read-outs stand apart in the source and are kept apart here."}
{"molecule": "3-phenoxy-α-cyanobenzyl 2,2-dimethyl-3-(2,2-dichlorovinyl)-cyclopropano-1-carboxylate [(i), reference compound]", "values": [{"measurement": "Fish Toxicity, TLm48", "setting": "[1]", "result": "below 0.005 ppm"}]}
{"molecule": "CC(C)C(COCc1cccc(Oc2ccccc2)c1)c1ccc(Cl)cc1", "note": "(stereo not shown) [(b), reference compound]", "values": [{"measurement": "mortality at 500 ppm", "setting": "[2]; Tetranychus urticae, read-out: Mortality (%)", "result": 20, "unit": "%"}, {"measurement": "mortality at 20 ppm", "setting": "[3]; 20 ppm", "result": 10, "unit": "%"}, {"measurement": "mortality at 100 ppm", "setting": "[3]; 100 ppm", "result": 30, "unit": "%"}, {"measurement": "mortality at 100 ppm", "setting": "[4]; 48 h", "result": 50, "unit": "%"}, {"measurement": "mortality at 20 ppm", "setting": "[4]; [8]", "result": 0, "unit": "%"}]}
{"molecule": "COP(=O)(NC(C)=O)SC", "note": "(stereo not shown) [(h), O,S-dimethyl N-acetylphosphoroamidothiolate]", "values": [{"measurement": "mortality at 20 ppm", "setting": "[4]; 48 h", "result": 30, "unit": "%"}, {"measurement": "mortality at 100 ppm", "setting": "[4]; 48 h", "result": 70, "unit": "%"}]}
{"molecule": "CNC(=O)ON=C(C)SC", "note": "[Comparative Compound (f), S-methyl N-(methylcarbamoyloxy)thioacetoamidate]", "values": [{"measurement": "mortality at 20 ppm", "setting": "[4]; [8]", "result": 80, "unit": "%"}, {"measurement": "mortality at 100 ppm", "setting": "[4]; 100 ppm, second-instar larvae, 48 hours, read-out: Mortality (%)", "result": 100, "unit": "%"}]}
{"molecule": "Pyrethrin [Comparative Compound (c), reference compound]", "values": [{"measurement": "Mortality (%)", "setting": "[2]", "result": 0, "unit": "%"}, {"measurement": "Mortality (%) Green Rice Leafhopper Collected at Nakagawara", "setting": "[5]; 20 ppm", "result": 0, "unit": "%"}, {"measurement": "Mortality (%) Green Rice Leafhopper Collected at Nakagawara", "setting": "[5]; 100 ppm", "result": 0, "unit": "%"}, {"measurement": "Mortality (%) Green Rice Leafhopper Collected at Chigasaki", "setting": "[6]; 20 ppm", "result": 0, "unit": "%"}, {"measurement": "Mortality (%) Green Rice Leafhopper Collected at Chigasaki", "setting": "[6]; 100 ppm", "result": 0, "unit": "%"}, {"measurement": "Acute Toxicity at Oral Administration, LD-50", "setting": "[7]", "result": 340, "unit": "mg/kg"}]}
